A word on the Kd: it is a measure of binding affinity in units of concentration. A lower Kd goes with tighter binding.

The text below walks through data of paper PMC10611796, “The α-synuclein PET tracer [18F] ACI-12589 distinguishes multiple system atrophy from other neurodegenerative diseases” (Nature Communications, 2023).

This assay has as its target T1, α-synuclein (Homo sapiens, UniProt P37840).
T1 construct: gene SNCA; pathological α-syn aggregates in post-mortem human brain tissue
The assay is described as follows: radioligand saturation binding (autoradiography and radiobinding) on human brain tissue; displacement by unlabeled ACI-12589; micro-autoradiography.

For the substance ACI-12589, the Kd is 0.0335 ± 0.0174 µM.
